According to ChEMBL document CHEMBL1152211, “Structure-activity study at positions 3 and 4 of human neuropeptide S” (Bioorg Med Chem, 2008):
Non-standard residues stand in square brackets, D forms with d. Residues, ends and D or L forms follow the SMILES beside them. 3Pal = N[C@@H](Cc1cccnc1)C(=O)O; 4Pal = N[C@@H](Cc1ccncc1)C(=O)O

Molecular target: T1, Neuropeptide S receptor (Mus musculus) (UniProt Q8BZP8)
T1 sequence (whole entry): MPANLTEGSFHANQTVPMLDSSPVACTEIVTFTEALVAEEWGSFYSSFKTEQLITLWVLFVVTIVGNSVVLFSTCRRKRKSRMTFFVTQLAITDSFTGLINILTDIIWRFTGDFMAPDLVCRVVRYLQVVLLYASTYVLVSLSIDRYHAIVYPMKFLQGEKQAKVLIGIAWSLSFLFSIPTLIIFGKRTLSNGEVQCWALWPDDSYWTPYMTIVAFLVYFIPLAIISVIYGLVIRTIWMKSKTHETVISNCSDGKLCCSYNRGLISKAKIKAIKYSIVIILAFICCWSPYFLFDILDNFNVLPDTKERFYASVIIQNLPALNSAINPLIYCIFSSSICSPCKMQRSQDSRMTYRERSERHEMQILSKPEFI
Assay: Agonist activity at mouse NPSR expressed in HEK293 cells assessed as increase in intracellular calcium mobilization at 10 uM by FLIPR
Type: functional, cell-based

Activity [%] | Compound
42 | CSCC[C@H](NC(=O)CNC(=O)[C@@H](NC(=O)CNC(=O)[C@@H](NC(=O)CNC(=O)[C@H](CC(N)=O)NC(=O)[C@H](Cc1cccnc1)NC(=O)[C@H](Cc1ccccc1)NC(=O)[C@@H](N)CO)C(C)C)[C@@H](C)O)C(=O)N[C@@H](CCCCN)C(=O)N[C@@H](CCCCN)C(=O)N[C@H](C(=O)N[C@@H](CO)C(=O)N[C@@H](Cc1ccccc1)C(=O)N[C@@H](CCC(N)=O)C(=O)N[C@@H](CCCNC(=N)N)C(=O)N[C@@H](C)C(=O)N[C@@H](CCCCN)C(=O)N[C@@H](CO)C(=O)O)[C@@H](C)O (H-SF[3Pal]NGVGTGMKKTSFQRAKS-OH)
154 | CSCC[C@H](NC(=O)CNC(=O)[C@@H](NC(=O)CNC(=O)[C@@H](NC(=O)CNC(=O)[C@H](CC(N)=O)NC(=O)[C@H](Cc1ccncc1)NC(=O)[C@H](Cc1ccccc1)NC(=O)[C@@H](N)CO)C(C)C)[C@@H](C)O)C(=O)N[C@@H](CCCCN)C(=O)N[C@@H](CCCCN)C(=O)N[C@H](C(=O)N[C@@H](CO)C(=O)N[C@@H](Cc1ccccc1)C(=O)N[C@@H](CCC(N)=O)C(=O)N[C@@H](CCCNC(=N)N)C(=O)N[C@@H](C)C(=O)N[C@@H](CCCCN)C(=O)N[C@@H](CO)C(=O)O)[C@@H](C)O (H-SF[4Pal]NGVGTGMKKTSFQRAKS-OH)
73 | H-SFDNGVGTGMKKTSFQRAKS-OH
89 | H-SFENGVGTGMKKTSFQRAKS-OH
46 | H-SFFNGVGTGMKKTSFQRAKS-OH
36 | H-SFLNGVGTGMKKTSFQRAKS-OH
161 | H-SFNNGVGTGMKKTSFQRAKS-OH
146 | H-SFRDGVGTGMKKTSFQRAKS-OH
118 | H-SFRFGVGTGMKKTSFQRAKS-OH
175 | H-SFSNGVGTGMKKTSFQRAKS-OH
129 | H-SFVNGVGTGMKKTSFQRAKS-OH
73 | H-SFYNGVGTGMKKTSFQRAKS-OH
